According to patent publication US5212159A, “Anticataract composition” (Senju Pharmaceutical Co., Ltd., priority 1991, dated 1993):

System: Streptozotocin-induced Diabetic Cataract
Experiment: Inhibitory effect on streptozotocin-induced diabetic cataract (slit-lamp cataract score, Sasaki scale)
Type: in vivo, male SD rats
Description: Streptozotocin (hereafter abbreviated as STZ), 70 mg/kg, was administered intravenously to 28 male SD rats aged 4 weeks to induce diabetes. Thereafter, the animals were divided into three groups (two groups consisting of 10 animals each and a group consisting of 8 animals). […] The lens was examined with a slit lamp under mydriasis with Mydrin-P before the beginning of drug administration and every seven days after initiation of administration. The degree of cataract was scored according to the rating scale of Sasaki et al. (Ophthalmic Res. 15: 185-190, 1983) and the anticataract activity of each drug was tested by time series analysis of variance. Body weights were taken on each observation day. […] Rating scale of Sasaki et al. 0: No abnormality. […] Vacuoles are present in the equator of the lens. […] Vacuoles spread toward the anterior pole beneath the cortex of the anterior lens capsule. […] Vacuole begin to merge. […] The deep layer of the cortex of the anterior lens capsule is cloudy. […] The central part of the lens is milk white in color. […] Virtually the entire lens is milk white in color (mature cataract).

[1] = compared with the control group, 100 mg/kg/day i.p. for 56 days
[2] = day 7 after the beginning of treatment, 100 mg/kg/day i.p.
[3] = day 14 after the beginning of treatment, 100 mg/kg/day i.p.
[4] = day 21 after the beginning of treatment, 100 mg/kg/day i.p.
[5] = day 28 after the beginning of treatment, 100 mg/kg/day i.p.
[6] = day 35 after the beginning of treatment, 100 mg/kg/day i.p.
[7] = day 42 after the beginning of treatment, 100 mg/kg/day i.p.
[8] = day 49 after the beginning of treatment, 100 mg/kg/day i.p.
[9] = day 56 after the beginning of treatment, 100 mg/kg/day i.p.

## N[C@@H](CCC(=O)N[C@@H](CS)C(=O)NCC(=O)O)C(=O)O [Glutathione, glutathione]
[1]
  Degree of progression of cataract, time series analysis of variance: no significant difference from the control group
  Time at which cataract scores were reached: scores of 5 and 6 were reached later than in the control group
Day 0 after the beginning of treatment, 100 mg/kg/day i.p.
  Number of eyes with cataract score 0: 16 eyes
[2]
  Number of eyes with cataract score 0: 7 eyes
  Number of eyes with cataract score 1: 9 eyes
[3]
  Number of eyes with cataract score 0: 1 eyes
  Number of eyes with cataract score 1: 13 eyes
  Number of eyes with cataract score 2: 2 eyes
[4]
  Number of eyes with cataract score 1: 3 eyes
  Number of eyes with cataract score 2: 13 eyes
[5]
  Number of eyes with cataract score 2: 9 eyes
  Number of eyes with cataract score 3: 7 eyes
[6]
  Number of eyes with cataract score 2: 3 eyes
  Number of eyes with cataract score 3: 8 eyes
  Number of eyes with cataract score 4: 3 eyes
[7]
  Number of eyes with cataract score 3: 11 eyes
  Number of eyes with cataract score 4: 3 eyes
[8]
  Number of eyes with cataract score 3: 10 eyes
  Number of eyes with cataract score 4: 3 eyes
  Number of eyes with cataract score 5: 1 eyes
[9]
  Number of eyes with cataract score 3: 4 eyes
  Number of eyes with cataract score 4: 6 eyes
  Number of eyes with cataract score 5: 3 eyes
  Number of eyes with cataract score 6: 1 eyes
